Laboratory results from patent US5237055A, “Chemical modification of 2"-amino group in elsamicin A” (Bristol-Myers Squibb Company, priority 1992, dated 1993).
Converted amounts (≈) assume the structure as drawn. Structures can show the parent of a compound that is named as a salt.

What was measured:
[1] = system: lymphocytic leukemia P388; experiment: In vivo antitumor activity against P388 leukemia in mice; parameters: species or system mice (female CDF1); conditions: for prolongation of life-span in the P388-bearing mice / times less active than the parent compound in terms of minimum effective doses (MED): P388, Q1Dx3, ip; for times less active than the parent compound in terms of minimum effective doses (MED): relative to elsamicin A
Experimental: (§1) Among the derivatives tested, in vivo antitumor activity of six derivatives showing relatively potent cytotoxicity was tested in the lymphocytic leukemia P388 and B16 melanoma systems. Female CDF1 (for P388) and male BDF1 (for B16) mice were inoculated by ip injection at 10^6 P388 cells and 0.5 ml of a 10% B16 brei per mouse, respectively (day 0). […] The percent increase of median survival time (MST) of treated animals over that of untreated control animals was determined and reported as T/C %. Compounds showing T/C % values of 125 or greater are considered to have significant antitumor activity. […] The others had no activity at the doses tested. Derivatives 4d, 4e, and 5 when tested in the B16 system, also gave 10-30 times less antitumor activity than elsamicin A in terms of MED (Table 5).

[2] = system: murine melanoma B16-F10 cells; experiment: cells; conditions: Mus musculus, B16-F10, 72 h, read-out: Cytotoxicity IC50
Experimental: For in vitro cytotoxicity experiment, murine melanoma B16-F10 cells were grown and maintained in Eagle's minimum essential medium (Nissui), which contains kanamycin (60 μg/ml), supplemented with heat-inactivated fetal calf serum (10%) and nonessential amino acids (0.6%) at 37° C. under a humidified atmosphere in a 5% CO2 incubator. Exponentially growing B16-F10 cells were harvested, counted and suspended in the culture medium at the concentration of 2.0×10^4 cells/ml. The cell suspension (180 μl) was planted into wells of a 96-well microtiter plate and incubated for 24 hours. Test compounds (20 μl) were added to the wells and the plates were further incubated for 72 hours. The cytotoxic activity was colorimetrically determined at 540 nm after staining viable cells with neutral red solution.

[3] = system: B16 melanoma; experiment: In vivo antitumor activity against B16 melanoma in mice; parameters: species or system mice (male BDF1); conditions: B16, Q4Dx3 ip; relative to elsamicin A
Experimental: as §1

SMILES	T/C % of MST ([1]; P388, 20 mg/kg/day, Q1Dx3, ip)	IC50 [2]	prolongation of life-span in the P388-bearing mice [1]	times less active than the parent compound in terms of minimum effective doses (MED) [1]	times less antitumor activity than elsamicin A in terms of MED [3]
CO[C@@H]1[C@@H](N)[C@@H](O[C@H]2[C@H](Oc3cccc4c(O)c5c(=O)oc6ccc(C)c7c(=O)oc(c34)c5c67)O[C@H](C)[C@H](O)[C@]2(C)O)O[C@H](C)[C@@H]1O [Compound 1, Elsamicin A]	Tox				
CO[C@H]1[C@@H](O)[C@@H](C)O[C@H](O[C@H]2[C@H](Oc3cccc4c(O)c5c(=O)oc6ccc(C)c7c(=O)oc(c34)c5c67)O[C@H](C)[C@H](O)[C@]2(C)O)[C@@H]1NC(C)=O [Compound 3a, 2"-N-Acetylelsamicin A]		55 µg/mL (≈ 79.1 µM)			
CO[C@H]1[C@@H](O)[C@@H](C)O[C@H](O[C@H]2[C@H](Oc3cccc4c(O)c5c(=O)oc6ccc(C)c7c(=O)oc(c34)c5c67)O[C@H](C)[C@H](O)[C@]2(C)O)[C@@H]1NC(=O)CCC(=O)O [Compound 3b, 2"-N-(3-Carboxypropionyl)elsamicin A]		56 µg/mL (≈ 74.3 µM)			
CO[C@H]1[C@@H](O)[C@@H](C)O[C@H](O[C@H]2[C@H](Oc3cccc4c(O)c5c(=O)oc6ccc(C)c7c(=O)oc(c34)c5c67)O[C@H](C)[C@H](O)[C@]2(C)O)[C@@H]1NC(=O)CN [Compound 3d, 2"-N-Glycylelsamicin A]		4.1 µg/mL (≈ 5.77 µM)			
CO[C@H]1[C@@H](O)[C@@H](C)O[C@H](O[C@H]2[C@H](Oc3cccc4c(O)c5c(=O)oc6ccc(C)c7c(=O)oc(c34)c5c67)O[C@H](C)[C@H](O)[C@]2(C)O)[C@@H]1NC(C)C [Compound 4a, 2"-N-Isopropylelsamicin A]		1.5 µg/mL (≈ 2.16 µM)	quite limited prolongation of life-span	10-30 times	
CN[C@H]1[C@@H](O[C@H]2[C@H](Oc3cccc4c(O)c5c(=O)oc6ccc(C)c7c(=O)oc(c34)c5c67)O[C@H](C)[C@H](O)[C@]2(C)O)O[C@H](C)[C@H](O)[C@@H]1OC [Compound 4d, 2"-N-Methylelsamicin A]		1.7 µg/mL (≈ 2.55 µM)	quite limited prolongation of life-span	10-30 times	10-30 times
CO[C@H]1[C@@H](O)[C@@H](C)O[C@H](O[C@H]2[C@H](Oc3cccc4c(O)c5c(=O)oc6ccc(C)c7c(=O)oc(c34)c5c67)O[C@H](C)[C@H](O)[C@]2(C)O)[C@@H]1N(C)C [Compound 4e, 2"-N,N-Dimethylelsamicin A]		0.36 µg/mL (≈ 0.528 µM)	quite limited prolongation of life-span	10-30 times	10-30 times
CO[C@H]1[C@@H](O)[C@@H](C)O[C@H](O[C@H]2[C@H](Oc3cccc4c(O)c5c(=O)oc6ccc(C)c7c(=O)oc(c34)c5c67)O[C@H](C)[C@H](O)[C@]2(C)O)[C@@H]1N1CCOCC1 [Compound 4f, 2"-Deamino-2"-morpholinoelsamicin A]		11 µg/mL (≈ 15.2 µM)			
CO[C@H]1[C@@H](O)[C@@H](C)O[C@H](O[C@H]2[C@H](Oc3cccc4c(O)c5c(=O)oc6ccc(C)c7c(=O)oc(c34)c5c67)O[C@H](C)[C@H](O)[C@]2(C)O)[C@@H]1NC=N [Compound 5, 2"-N-Formimidoylelsamicin A hydrochloride]		0.47 µg/mL	quite limited prolongation of life-span	10-30 times	10-30 times
